# Test results reported in US7199217B2, “Amidated glucagon-like peptide-1” (Eli Lilly and Company, priority 2000, dated 2007).
# Assays:
# [1] = molecular target: T1, human GLP-1 receptor (Homo sapiens, UniProt P43220); experiment: In vitro activity, HEK-293 Aurora CRE-BLAM cells, β-lactamase reporter; type: cell-based; details: comparison with the acid form; test not specified
# T1 construct: expressed in transfected cells; host or cells: HEK-293 Aurora CRE-BLAM cells
# From the text: The day after seeding, the medium is replaced with plasma free medium.
# [2] = Aggregation time in solution, turbidity at 350 nm while stirred; type: physicochemical; details: 37° C.; 0.3 mg/mL in 10 mM citrate, 10 mM phosphate, 150 mM NaCl, pH 7.4 to 7.5, stirred
# Description: The peptides in solution were stirred at elevated temperature in a suitable buffer while recording turbidity at 350 nm as a function of time. Time to the onset of aggregation was measured to quantify the potential of each GLP-1 molecule to aggregate under these stressed conditions.
# In general, the peptides in solution were stirred at elevated temperature in a suitable buffer while recording turbidity at 350 nm as a function of time. Time to the onset of aggregation was measured to quantify the potential of a given GLP molecule to aggregate under these stressed conditions.
# The GLP-1 peptides were first dissolved under alkaline conditions (pH 10.5) for 30 minutes to dissolve any pre-aggregated material. The solution was then adjusted to pH 7.4 and filtered. Specifically, 4 mg of a lyophilized GLP-1 peptide was dissolved in 3 mL of 10 mM phosphate/10 mM citrate. The pH was adjusted to 10.0–10.5 and held for 30 minutes. The solution was adjusted with HCl to pH 7.4 and filtered through a suitable filter, for example a Millex® GV syringe filter (Millipore Corporation, Bedford, Mass.). This solution was then diluted to a final sample containing 0.3 mg/mL protein in 10 mM citrate, 10 mM phosphate, 150 mM NaCl, and adjusted to pH 7.4 to 7.5. […] Every five minutes the turbidity of the solution was measured at 350 nm on an AVIV Model 14DS UV-VIS spectrophotometer (Lakewood, N.J.). […]
# T1 sequence (P43220 24-463): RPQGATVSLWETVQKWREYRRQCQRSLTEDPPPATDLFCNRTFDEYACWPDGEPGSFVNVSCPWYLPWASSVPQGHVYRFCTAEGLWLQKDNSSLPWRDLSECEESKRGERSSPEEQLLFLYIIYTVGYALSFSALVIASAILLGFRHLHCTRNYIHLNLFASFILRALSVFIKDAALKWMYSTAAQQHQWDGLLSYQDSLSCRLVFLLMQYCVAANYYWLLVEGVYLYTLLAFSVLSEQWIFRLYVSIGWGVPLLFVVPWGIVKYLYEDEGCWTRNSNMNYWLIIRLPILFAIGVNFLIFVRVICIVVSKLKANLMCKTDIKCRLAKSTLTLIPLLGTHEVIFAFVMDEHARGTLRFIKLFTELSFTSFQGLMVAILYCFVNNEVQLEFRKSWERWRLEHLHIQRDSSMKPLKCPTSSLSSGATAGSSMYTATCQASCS
Potency compared to the acid form Val^8-GLP-1(7–37)OH (in words) [1],Substance,Time to onset of aggregation [2]
slightly less potent than the acid form,Val^8-GLP-1(7–36)NH2,–
–,Val^8-GLP-1(7–37)NH2 (HXEGTFTSDVSSYLEXQAAKXFIXWLVKGRX; C-terminal amide) [GLP-1(7–37)OH wherein Ala at position 8 has been substituted with Val and Gly at position 37 has been amidated],approximately 23 hours
